From the supplement of paper PMC13380429

Tests used:
Settings in all cases: 72 h
[1] = system: U2OS; assay: relative viability EC50 (midpoint between 100% and the lowest measured viability); higher = less toxic
[2] = system: Calu-3; assay: as above
[3] = system: Vero E6; assay: as above
[4] = system: Caco-2; assay: as above
[5] = system: HepG2; assay: as above
[6] = system: U2OS; assay: cell viability relative to DMSO; higher = less toxic
[7] = system: Calu-3; assay: as above
[8] = system: Vero E6; assay: as above
[9] = system: Caco-2; assay: as above
[10] = system: HepG2; assay: as above
[11] = system: U2OS; assay: drug sensitivity score (DSS) for viability; higher = more toxic; extreme values may be limits of the assay
[12] = system: Calu-3; assay: as above
[13] = system: Vero E6; assay: as above
[14] = system: Caco-2; assay: as above
[15] = system: HepG2; assay: as above

| SMILES | relative viability EC50 [1] [µM] | relative viability EC50 [2] [µM] | relative viability EC50 [3] [µM] | relative viability EC50 [4] [µM] | relative viability EC50 [5] [µM] | cell viability ([6]; 1 nM) [%] | cell viability ([6]; 10 nM) [%] | cell viability ([6]; 100 nM) [%] | cell viability ([6]; 1000 nM) [%] | cell viability ([6]; 10000 nM) [%] | cell viability ([7]; 1 nM) [%] | cell viability ([7]; 10 nM) [%] | cell viability ([7]; 100 nM) [%] | cell viability ([7]; 1000 nM) [%] | cell viability ([7]; 10000 nM) [%] | cell viability ([8]; 1 nM) [%] | cell viability ([8]; 10 nM) [%] | cell viability ([8]; 100 nM) [%] | cell viability ([8]; 1000 nM) [%] | cell viability ([8]; 10000 nM) [%] | cell viability ([9]; 1 nM) [%] | cell viability ([9]; 10 nM) [%] | cell viability ([9]; 100 nM) [%] | cell viability ([9]; 1000 nM) [%] | cell viability ([9]; 10000 nM) [%] | cell viability ([10]; 1 nM) [%] | cell viability ([10]; 10 nM) [%] | cell viability ([10]; 100 nM) [%] | cell viability ([10]; 1000 nM) [%] | cell viability ([10]; 10000 nM) [%] | drug sensitivity score [11] | drug sensitivity score [12] | drug sensitivity score [13] | drug sensitivity score [14] | drug sensitivity score [15] |
| --- | --- | --- | --- | --- | --- | --- | --- | --- | --- | --- | --- | --- | --- | --- | --- | --- | --- | --- | --- | --- | --- | --- | --- | --- | --- | --- | --- | --- | --- | --- | --- | --- | --- | --- | --- |
| CNC[C@H](O)c1cccc(O)c1 [phenylephrine] | > 10 | > 10 | > 10 | > 10 | > 10 | 98.9 | 96.1 | 98.9 | 102 | 101 | 103 | 92.5 | 95.7 | 98.9 | 97.5 | 96.6 | 99.7 | 95.6 | 93.5 | 102 | 99.2 | 91 | 96.4 | 92.4 | 99.7 | 98.7 | 101 | 99.1 | 93.5 | 111 | 0 | 0 | 0 | 0 | 0 |
| O=C(Nc1cccc2c(=O)cc(-c3nnn[nH]3)oc12)c1ccc(OCCCCc2ccccc2)cc1 [pranlukast] | > 10 | > 10 | > 10 | > 10 | > 10 | 96.7 | 97.2 | 94.3 | 98.6 | 95.2 | 102 | 111 | 93.1 | 96.8 | 88.9 | 99.6 | 94.4 | 93.8 | 97.1 | 96 | 94.1 | 91.3 | 94.6 | 99.1 | 86.7 | 95.7 | 95.6 | 104 | 101 | 99.9 | 0 | 0 | 0 | 0 | 0 |
| CC(=O)[C@H]1CC[C@H]2[C@@H]3CC=C4C[C@@H](OC(=O)CCC(=O)O)CC[C@]4(C)[C@H]3CC[C@]12C [pregnenolone-succinate] | > 10 | > 10 | > 10 | > 10 | > 10 | 101 | 94.7 | 100 | 97.9 | 99.9 | 89.8 | 95.1 | 93.7 | 94.1 | 113 | 94.1 | 96.8 | 88.7 | 97.3 | 107 | 90.5 | 97.4 | 110 | 94.2 | 87.7 | 93.3 | 93.8 | 94.4 | 95 | 97 | 0 | 0 | 0 | 0.3 | 0 |
| CNNCc1ccc(C(=O)NC(C)C)cc1 [procarbazine] | > 10 | > 10 | > 10 | > 10 | > 10 | 96 | 103 | 96.4 | 98.7 | 106 | 92.2 | 99.3 | 97.4 | 102 | 90.8 | 103 | 93.2 | 102 | 89 | 102 | 98.2 | 105 | 96.2 | 101 | 87.4 | 103 | 87.7 | 93.3 | 112 | 110 | 0 | 0 | 0 | 0 | 0 |
| Cc1cc(/C=C/c2ccc3cc(N(C)C)ccc3[n+]2C)c(C)n1-c1ccccc1 [pyrvinium-pamoate] | 1.15 | 1.16 | 1.56 | 0.834 | 0.745 | 107 | 106 | 103 | 60 | 3.8 | 105 | 101 | 99.3 | 63 | 9.3 | 106 | 97.4 | 100 | 78 | 10.6 | 107 | 93 | 102 | 46.9 | 13.3 | 104 | 110 | 98 | 42 | 9.6 | 10.6 | 9.9 | 8.4 | 11.1 | 11.9 |
| C#CCN[C@@H]1CCc2ccccc21 [rasagiline] | > 10 | > 10 | > 10 | > 10 | > 10 | 99.8 | 105 | 97.5 | 106 | 97.2 | 87 | 96.3 | 100 | 97.3 | 99.6 | 106 | 104 | 102 | 104 | 97.1 | 97 | 98 | 91.5 | 99 | 94.2 | 103 | 117 | 110 | 104 | 99.6 | 0 | 0 | 0 | 0 | 0 |
| CNC(=O)c1cnn(-c2nc(N)c3ncn([C@@H]4O[C@H](CO)[C@@H](O)[C@H]4O)c3n2)c1 [regadenoson] | > 10 | > 10 | > 10 | > 10 | > 10 | 95.9 | 92.1 | 102 | 99 | 104 | 91.7 | 104 | 106 | 102 | 103 | 101 | 93.7 | 86.2 | 103 | 111 | 101 | 97.4 | 91.1 | 94.3 | 108 | 102 | 105 | 102 | 90.7 | 117 | 0 | 0 | 0 | 0 | 0 |
| COc1ccc(S(=O)(=O)N2c3ccc(Cl)cc3[C@](O)(c3ccccc3Cl)[C@@H]2C(=O)N2CCC[C@H]2C(N)=O)cc1OC [relcovaptan] | > 10 | > 10 | > 10 | > 10 | > 10 | 103 | 105 | 102 | 105 | 99.2 | 91.8 | 100 | 93.3 | 108 | 86.7 | 103 | 99.8 | 92.4 | 97.2 | 97.5 | 102 | 102 | 91.6 | 102 | 87.5 | 108 | 99.4 | 108 | 98.8 | 94.3 | 0 | 0 | 0 | 0 | 0 |
| O=C(O)c1cc(O)c2c(c1)C(=O)c1cccc(O)c1C2=O [rhein] | > 10 | > 10 | > 10 | > 10 | > 10 | 103 | 98.4 | 99 | 98.2 | 102 | 90 | 96.6 | 106 | 98.5 | 111 | 98.7 | 92.7 | 95.5 | 99.1 | 99.2 | 100 | 102 | 97.6 | 95.7 | 98.1 | 110 | 95.5 | 106 | 93.3 | 88.6 | 0 | 0 | 0 | 0 | 0.2 |
| CCC(=O)[C@@]1(C)[C@H](C)C[C@H]2[C@@H]3CCC4=CC(=O)C=C[C@]4(C)[C@H]3[C@@H](O)C[C@@]21C [rimexolone] | > 10 | > 10 | > 10 | > 10 | > 10 | 99.8 | 98.9 | 100 | 95.5 | 97 | 98.4 | 99 | 89.4 | 102 | 96.4 | 93.8 | 95.2 | 90 | 94.7 | 100 | 85.5 | 90.5 | 101 | 88.8 | 107 | 86.3 | 102 | 95.4 | 112 | 92.8 | 0 | 0 | 0 | 0 | 0 |
| NC(=O)c1ccc(F)c2c1C[C@@H](N(C1CCC1)C1CCC1)CO2 [robalzotan] | > 10 | > 10 | > 10 | > 10 | > 10 | 102 | 107 | 97.7 | 105 | 99.1 | 98.8 | 110 | 94.5 | 91.2 | 97.7 | 102 | 99.8 | 107 | 94.4 | 103 | 92.7 | 98.3 | 97.5 | 105 | 99.5 | 105 | 101 | 99.5 | 96.9 | 100 | 0 | 0 | 0 | 0 | 0 |
| CC1CCC(NC(=O)N(CCCl)N=O)CC1 (stereo not given) [semustine] | > 10 | > 10 | > 10 | > 10 | > 10 | 98.8 | 96.6 | 99.6 | 99.5 | 99.9 | 98.5 | 110 | 87 | 97.2 | 99.4 | 106 | 99.6 | 105 | 104 | 99.8 | 99.1 | 103 | 104 | 91.1 | 91.7 | 96.3 | 108 | 92.3 | 107 | 91.8 | 0 | 0 | 0 | 0 | 0 |
| CC1=C(C)C(=O)C(C(CCCCCC(=O)O)c2ccccc2)=C(C)C1=O (stereo not given) [seratrodast] | > 10 | > 10 | > 10 | > 10 | > 10 | 99.8 | 95.7 | 99.6 | 93.2 | 98.5 | 104 | 91 | 99 | 99.2 | 104 | 97.7 | 99.5 | 96.4 | 96.9 | 98.2 | 91 | 92.7 | 104 | 90.4 | 95.3 | 98.7 | 98.7 | 101 | 98.1 | 103 | 0 | 0 | 0 | 0 | 0 |
| N[C@@H]1CN(c2c(F)cc3c(=O)c(C(=O)O)cn([C@@H]4C[C@@H]4F)c3c2Cl)CC12CC2 [sitafloxacin] | > 10 | > 10 | > 10 | > 10 | > 10 | 104 | 96.3 | 96 | 95.8 | 96.8 | 98.5 | 94 | 98 | 96.7 | 93.9 | 91.3 | 98 | 91.6 | 99 | 106 | 95.2 | 95.6 | 91.6 | 106 | 97.2 | 107 | 101 | 97.5 | 110 | 108 | 0 | 0 | 0 | 0 | 0 |
